Measured values from US9695155B2, “Herbicidal substituted pyrimidinyloxy benzene compounds” (E. I. DU PONT DE NEMOURS AND COMPANY, priority 2013, dated 2017).

Columns and labels:
rice = test: Test B flooded paddy test; assay type: in vivo, Oryza sativa; conditions: Oryza sativa; Flood, 250 g ai/ha; 0 to 100 scale where 0 is no effect and 100 is complete control; read-out: Plant response rating, Rice
How it was run: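 Greenhouse flooded-pot test: compounds dosed into 3 cm standing water over 2-leaf plants, flood held constant. Rated visually after 13–15 days on 0–100 (complete control = 100); a dash marks no test result.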

corn = test: Test A preemergence; assay type: in vivo, Zea mays; conditions: Zea mays, pre-emergence, 240 h, read-out: Corn plant response rating
How it was run: (§1)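 Pre- and postemergence greenhouse screen. Soil: loam + sand. Spray carrier: solvent mixture, non-phytotoxic, with surfactant. Post timing at 1–2 leaves, height 2–10 cm. Readout: visual injury on a 0–100 scale roughly 10 days after application, untreated plants as reference.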

large (Lg) crabgrass [1] = test: Test A preemergence; assay type: in vivo, Digitaria sanguinalis; conditions: Digitaria sanguinalis, pre-emergence, 240 h, read-out: Crabgrass, Large plant response rating
How it was run: as §1

barnyardgrass = test: Test A preemergence; assay type: in vivo, Echinochloa crus-galli; conditions: Echinochloa crus-galli, pre-emergence, 240 h, read-out: Barnyardgrass plant response rating
How it was run: as §1

Italian ryegrass = test: Test C postemergence; assay type: in vivo, Lolium multiflorum; conditions: Lolium multiflorum, post-emergence
How it was run: (§2)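 Sown in loam/sand → sprayed pre-emergence; or grown to 1–4 leaves in peat mix → sprayed post-emergence. Same solvent/surfactant formulation both ways. Greenhouse 13–15 d. Score 0–100 visual.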

large (Lg) crabgrass [2] = test: Test A postemergence; assay type: in vivo, Digitaria sanguinalis; conditions: Digitaria sanguinalis, post-emergence, 240 h
How it was run: as §1

pigweed = test: Test A preemergence; assay type: in vivo, Amaranthus retroflexus; conditions: Amaranthus retroflexus, pre-emergence, 240 h, read-out: Pigweed plant response rating
How it was run: as §1

wild oat = test: Test C postemergence; assay type: in vivo, Avena fatua; conditions: Avena fatua, post-emergence
From the text: (§3) Seeds of plant species selected from blackgrass (Alopecurus myosuroides), Italian ryegrass (Lolium multiflorum), wheat, winter (winter wheat, Triticum aestivum), galium (catchweed bedstraw, Galium aparine), corn (Zea mays), large (Lg) crabgrass (Digitaria sanguinalis), giant foxtail (Setaria faberii), johnsongrass (Sorghum halepense), lambsquarters (Chenopodium album), morningglory (Ipomoea coccinea), yellow nutsedge (Cyperus esculentus), pigweed (Amaranthus retroflexus), ragweed (common ragweed, Ambrosia elatior), soybean (Glycine max), barnyardgrass (Echinochloa crus-galli), oilseed rape (Brassica napus), waterhemp (common waterhemp, Amaranthus rudis), kochia (Kochia scoparia), wild oat (Avena fatua), surinam grass (Brachiaria decumbens), foxtail, green (green foxtail, Setaria viridis), goosegrass (Eleusine indica), bromegrass, downy (downy bromegrass, Bromus tectorum), nightshade (eastern black nightshade, Solanum ptycanthum), cocklebur (common cocklebur, Xanthium strumarium), cupgrass, woolly (woolly cupgrass, Eriochloa villosa), bermudagrass (Cynodon dactylon), sunflower, (common oilseed sunflower, Helianthus annuus), Russian thistle (Salsola kali), and velvetleaf (Abutilon theophrasti) were planted into a blend of loam soil and sand and treated preemergence with test chemicals formulated in a non-phytotoxic solvent mixture which included a surfactant.
(§4) At the same time, plants selected from these crop and weed species and also barley, winter (winter barley, Hordeum vulgare), windgrass (Apera spica-venti), chickweed (common chickweed, Stellaria media), deadnettle (henbit deadnettle, Lamium amplexicaule), and canarygrass (littleseed canarygrass, Phalaris minor) were planted in pots containing Redi-Earth® planting medium (Scotts Company, 14111 Scottslawn Road, Marysville, Ohio 43041) comprising spaghnum peat moss, vermiculite, wetting agent and starter nutrients and treated with postemergence applications of test chemicals formulated in the same manner. Plants ranged in height from 2 to 18 cm (1- to 4-leaf stage) for postemergence treatments. Treated plants and controls were maintained in a greenhouse for 13 to 15 days, after which time all species were compared to controls and visually evaluated. Plant response ratings, summarized in Table C, are based on a scale of 0 to 100 where 0 is no effect and 100 is complete control. A dash (-) response means no test result.

morningglory = test: Test C postemergence; assay type: in vivo, Ipomoea coccinea; conditions: Ipomoea, post-emergence
From the text: as §3, §4

giant foxtail = test: Test C preemergence; assay type: in vivo, Setaria faberii; conditions: Setaria faberi, pre-emergence
How it was run: as §2

lambsquarters = test: Test C postemergence; assay type: in vivo, Chenopodium album; conditions: Chenopodium album, post-emergence
How it was run: as §2

large (Lg) crabgrass [3] = test: Test C postemergence; assay type: in vivo, Digitaria sanguinalis; conditions: Digitaria sanguinalis, post-emergence
How it was run: as §2

ragweed = test: Test C postemergence; assay type: in vivo, Ambrosia elatior; conditions: Ambrosia artemisiifolia, post-emergence
From the text: as §3, §4

yellow nutsedge = test: Test C preemergence; assay type: in vivo, Cyperus esculentus; conditions: Cyperus, pre-emergence
How it was run: as §2

[4] = 125 g ai/ha, 0 to 100 scale where 0 is no effect and 100 is complete control
[5] = 500 g ai/ha, 0 to 100 scale, 0 no effect, 100 complete control, approx. 10 days

## Clc1cnc(Oc2ccccc2-n2cc(Br)cn2)nc1 [Compound 7, 2-[2-(4-bromo-1H-pyrazol-1-yl)phenoxy]-5-chloropyrimidine]
rice
  plant injury at 250 g/ha: 20%
corn; [4]
  plant injury at 125 g/ha: 0%
corn; [5]
  plant injury at 500 g/ha: 30%
Large (Lg) crabgrass [1]; [4]
  pest or weed control at 125 g/ha: 100%
Large (Lg) crabgrass [1]; [5]
  pest or weed control at 500 g/ha: 100%
barnyardgrass; [4]
  pest or weed control at 125 g/ha: 80%
barnyardgrass; [5]
  pest or weed control at 500 g/ha: 100%
Italian ryegrass; 125 g ai/ha, postemergence, read-out: Plant response rating (0 to 100), Ryegrass, Italian
  pest or weed control at 125 g/ha: 10%
Italian ryegrass; 250 g ai/ha, postemergence, read-out: Plant response rating (0 to 100), Ryegrass, Italian
  pest or weed control at 250 g/ha: 40%
Italian ryegrass; Postemergence, 31 g ai/ha, scale 0 to 100 (0 no effect, 100 complete control), 13 to 15 days, read-out: Plant response rating, Ryegrass, Italian
  pest or weed control at 31 g/ha: 5%
Italian ryegrass; Postemergence, 62 g ai/ha, scale 0 to 100 (0 no effect, 100 complete control), read-out: Plant response rating, Ryegrass, Italian
  pest or weed control at 62 g/ha: 10%
Large (Lg) crabgrass [2]; 125 g ai/ha, 0 to 100 scale where 0 is no effect and 100 is complete control, read-out: Plant response rating, Crabgrass, Large
  pest or weed control at 125 g/ha: 80%
Large (Lg) crabgrass [2]; 500 g ai/ha, 0 to 100 scale, 0 no effect, 100 complete control, read-out: Plant response rating Crabgrass, Large
  pest or weed control at 500 g/ha: 100%
pigweed; [4]
  pest or weed control at 125 g/ha: 90%
pigweed; [5]
  pest or weed control at 500 g/ha: 100%
Wild oat; 125 g ai/ha, postemergence, read-out: Plant response rating (0 to 100), Oat, Wild
  pest or weed control at 125 g/ha: 35%
Wild oat; 250 g ai/ha, postemergence, read-out: Plant response rating (0 to 100), Oat, Wild
  pest or weed control at 250 g/ha: 55%
Wild oat; Postemergence, 31 g ai/ha, scale 0 to 100 (0 no effect, 100 complete control), 13 to 15 days, read-out: Plant response rating, Oat, Wild
  pest or weed control at 31 g/ha: 5%
Wild oat; Postemergence, 62 g ai/ha, scale 0 to 100 (0 no effect, 100 complete control), read-out: Plant response rating, Oat, Wild
  pest or weed control at 62 g/ha: 35%
morningglory; 125 g ai/ha, postemergence, read-out: Plant response rating (0 to 100), Morningglory
  pest or weed control at 125 g/ha: 95%
morningglory; Postemergence, 31 g ai/ha, scale 0 to 100 (0 no effect, 100 complete control), 13 to 15 days, read-out: Plant response rating, Morningglory
  pest or weed control at 31 g/ha: 75%
morningglory; Postemergence, 62 g ai/ha, scale 0 to 100 (0 no effect, 100 complete control), read-out: Plant response rating, Morningglory
  pest or weed control at 62 g/ha: 80%
Giant foxtail; 62 g ai/ha, preemergence, scale 0 (no effect) to 100 (complete control), read-out: Foxtail, Giant plant response rating
  pest or weed control at 62 g/ha: 80%
Giant foxtail; 125 g ai/ha, preemergence, scale 0 (no effect) to 100 (complete control), read-out: Foxtail, Giant plant response rating
  pest or weed control at 125 g/ha: 98%
Giant foxtail; 250 g ai/ha, preemergence, scale 0 (no effect) to 100 (complete control), read-out: Foxtail, Giant plant response rating
  pest or weed control at 250 g/ha: 100%
Giant foxtail; Preemergence, 31 g ai/ha, scale 0 to 100, 0 no effect, 100 complete control, read-out: Plant response rating, Foxtail, Giant
  pest or weed control at 31 g/ha: 40%
lambsquarters; 125 g ai/ha, postemergence, read-out: Plant response rating (0 to 100), Lambsquarters
  pest or weed control at 125 g/ha: 98%
lambsquarters; 250 g ai/ha, postemergence, read-out: Plant response rating (0 to 100), Lambsquarters
  pest or weed control at 250 g/ha: 98%
lambsquarters; Postemergence, 31 g ai/ha, scale 0 to 100 (0 no effect, 100 complete control), 13 to 15 days, read-out: Plant response rating, Lambsquarters
  pest or weed control at 31 g/ha: 60%
lambsquarters; Postemergence, 62 g ai/ha, scale 0 to 100 (0 no effect, 100 complete control), read-out: Plant response rating, Lambsquarters
  pest or weed control at 62 g/ha: 98%
Large (Lg) crabgrass [3]; 125 g ai/ha, postemergence, read-out: Plant response rating (0 to 100), Crabgrass, Large
  pest or weed control at 125 g/ha: 10%
Large (Lg) crabgrass [3]; 250 g ai/ha, postemergence, read-out: Plant response rating (0 to 100), Crabgrass, Large
  pest or weed control at 250 g/ha: 20%
Large (Lg) crabgrass [3]; Postemergence, 31 g ai/ha, scale 0 to 100 (0 no effect, 100 complete control), 13 to 15 days, read-out: Plant response rating, Crabgrass, Large
  pest or weed control at 31 g/ha: 5%
Large (Lg) crabgrass [3]; Postemergence, 62 g ai/ha, scale 0 to 100 (0 no effect, 100 complete control), read-out: Plant response rating, Crabgrass, Large
  pest or weed control at 62 g/ha: 5%
ragweed; 125 g ai/ha, postemergence, read-out: Plant response rating (0 to 100), Ragweed
  pest or weed control at 125 g/ha: 55%
ragweed; 250 g ai/ha, postemergence, read-out: Plant response rating (0 to 100), Ragweed
  pest or weed control at 250 g/ha: 60%
ragweed; Postemergence, 31 g ai/ha, scale 0 to 100 (0 no effect, 100 complete control), 13 to 15 days, read-out: Plant response rating, Ragweed
  pest or weed control at 31 g/ha: 50%
ragweed; Postemergence, 62 g ai/ha, scale 0 to 100 (0 no effect, 100 complete control), read-out: Plant response rating, Ragweed
  pest or weed control at 62 g/ha: 55%
Yellow nutsedge; 62 g ai/ha, preemergence, scale 0 (no effect) to 100 (complete control), read-out: Nutsedge, Yellow plant response rating
  pest or weed control at 62 g/ha: 0%
Yellow nutsedge; 125 g ai/ha, preemergence, scale 0 (no effect) to 100 (complete control), read-out: Nutsedge, Yellow plant response rating
  pest or weed control at 125 g/ha: 15%
Yellow nutsedge; 250 g ai/ha, preemergence, scale 0 (no effect) to 100 (complete control), read-out: Nutsedge, Yellow plant response rating
  pest or weed control at 250 g/ha: 15%
Yellow nutsedge; Preemergence, 31 g ai/ha, scale 0 to 100, 0 no effect, 100 complete control, read-out: Plant response rating, Nutsedge, Yellow
  pest or weed control at 31 g/ha: 0%
